In patent EP0687685A1, “PHYSIOLOGICALLY ACTIVE PEPTIDE” (TEIJIN LIMITED, priority 1993, dated 1994):
Positions of bridges follow the written chain, without caps; N, C: chain ends. Residues, ends and D or L forms follow the SMILES beside them. *: point of attachment. Mob = COc1ccc(C*)cc1

How the values were obtained:
human type II PLA₂ [1] = target: T1, human type II PLA₂ (Homo sapiens, UniProt P14555); assay: Inhibition of binding between heparin and human II-type PLA₂ (heparin-bound plate, biotinated PLA₂)
T1 construct: made in house; host or cells: Sf9 insect cells, baculovirus (AcNPV), vector pAcTJI1; purified from culture supernatant
T1 sequence (P14555 21-144): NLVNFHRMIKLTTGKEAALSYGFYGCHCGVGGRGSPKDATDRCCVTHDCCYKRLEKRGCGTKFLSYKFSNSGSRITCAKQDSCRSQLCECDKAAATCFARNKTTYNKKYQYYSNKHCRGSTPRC
Experimental: 500 µg of human type II (non-pancreatic) purified in Reference Example 1 was reacted with 2 ml of a solution of 5 mM sulfosuccinyl 6-(biotinamide hexose) in 0.1M NaHCO₃ at a room temperature for one hour, and the product was purified by a heparin Sepharose column to obtain biotinated human type II PLA₂.
50 µl of a phosphate buffered saline (PBS) containing 50 µg/ml poly-L-lysine was added to each well of a 96-well ELISA plate, and after incubation at room temperature for an hour, each well was twice washed with PBS, 50 µl of PBS solution containing 20 µg/ml heparin was added to each well, and a reaction was further carried out at a room temperature for an hour. Each well was twice washed with PBS, 200 µl of PBS solution containing 30 mg/ml bovine serum albumin (BSA) was added to each well, and after reaction at 37°C for an hour, the plate was stored at 4°C.
To each well of a peparin-bound plate prepared in Reference Example 3, 50 µl of a solution containing a peptide obtained in Examples 1 to 10 was added. After incubating at room temperature for 45 minutes, 50 µg/ml biotinated human II-type PLA₂ obtained in Example 2 was added thereon, and reaction was further carried out at room temperature for an hour. Each well was washed three times with PBS containing 0.05% Tween 20, 50 µl of a 3% BSA/PBS solution containing alkaline phosphatase-conjugated streptoavidin (Taga, ×2000 dilution) was added thereon, and a reaction was carried out at a room temperature for an hour. Each well was washed three times with PBS containing 0.05% Tween 20, 100 µl of a 1 mM p-nitrophenylphosphate/1M ethanolamine aqueous solution (pH 9.8) was added thereon, and a reaction was carried out at room temperature for an hour. Absorption of reaction mixture was measured at 405 nm using a microplate reader (Molecular Device Inc). A result is shown in Fig. 9, and IC₅₀ (µM) was also obtained.

human type II PLA₂ [2] = target: T1, human type II PLA₂; assay: Enzyme inhibition of human type II PLA₂ in the presence of heparin, radiolabeled synthetic phospholipid (method of Dole); assay type: biochemical

inhibitory activity to binding of human type II PLA₂ to heparin (human type II PLA₂ [1]) | inhibitory activity to type II PLA₂ enzyme (human type II PLA₂ [2]; in the presence of heparin) | inhibition at 1 µg/mL (human type II PLA₂ [2]; peptide 1 µg/ml, heparin 50 µg/ml, PLA₂ enzyme 200 ng/ml) [%] | remaining activity at 1 µg/mL (human type II PLA₂ [2]; peptide 1 µg/ml, heparin 50 µg/ml, PLA₂ enzyme 200 ng/ml, read-out: PLA₂enzyme activity (%)) [%] | inhibition at 5 µg/mL (human type II PLA₂ [2]; peptide 5 µg/ml, heparin 50 µg/ml, PLA₂ enzyme 200 ng/ml) [%] | remaining activity at 5 µg/mL (human type II PLA₂ [2]; peptide 5 µg/ml, heparin 50 µg/ml, PLA₂ enzyme 200 ng/ml, read-out: PLA₂enzyme activity (%)) [%] | inhibition at 10 µg/mL (human type II PLA₂ [2]; peptide 10 µg/ml, heparin 50 µg/ml, PLA₂ enzyme 200 ng/ml) [%] | remaining activity at 10 µg/mL (human type II PLA₂ [2]; peptide 10 µg/ml, heparin 50 µg/ml, PLA₂ enzyme 200 ng/ml, read-out: PLA₂enzyme activity (%)) [%] | inhibition at 50 µg/mL (human type II PLA₂ [2]; peptide 50 µg/ml, heparin 50 µg/ml, PLA₂ enzyme 200 ng/ml) [%] | remaining activity at 50 µg/mL (human type II PLA₂ [2]; peptide 50 µg/ml, heparin 50 µg/ml, PLA₂ enzyme 200 ng/ml, read-out: PLA₂enzyme activity (%)) [%] | inhibition at 100 µg/mL (human type II PLA₂ [2]; peptide 100 µg/ml, heparin 50 µg/ml, PLA₂ enzyme 200 ng/ml) [%] | remaining activity at 100 µg/mL (human type II PLA₂ [2]; peptide 100 µg/ml, heparin 50 µg/ml, PLA₂ enzyme 200 ng/ml, read-out: PLA₂enzyme activity (%)) [%] | SMILES
strong inhibitory activity | – | – | – | – | – | – | – | – | – | – | – | COc1ccc(CSC[C@H](NC(=O)CNC(=O)[C@H](CCCNC(=N)N)NC(=O)[C@@H](N)CCCCN)C(=O)NCC(=O)N[C@H](C(=O)N[C@@H](CCCCN)C(=O)N[C@@H](Cc2ccccc2)C(=O)N[C@@H](CC(C)C)C(=O)N[C@@H](CO)C(=O)N[C@@H](Cc2ccc(O)cc2)C(=O)N[C@@H](CCCCN)C(=O)N[C@@H](Cc2ccccc2)C(=O)N[C@@H](CO)C(=O)N[C@@H](CS)C(=O)O)[C@@H](C)O)cc1 [Peptide (6)] (H-KRGC(Mob)GTKFLSYKFSC-OH; N-terminus and C-terminus assumed)
strong inhibitory activity | inhibitory activity | 10 | 90 | 59 | 41 | 72 | 28 | 82 | 18 | 90 | 10 | CC(C)C[C@@H]1NC(=O)[C@H](Cc2ccccc2)NC(=O)[C@H](CCCCN)NC(=O)[C@H]([C@@H](C)O)NC(=O)CNC(=O)[C@@H](NC(=O)CNC(=O)[C@H](CCCNC(=N)N)NC(=O)[C@@H](N)CCCCN)CSSC[C@@H](C(=O)O)NC(=O)[C@H](CO)NC(=O)[C@H](Cc2ccccc2)NC(=O)[C@H](CCCCN)NC(=O)[C@H](Cc2ccc(O)cc2)NC(=O)[C@H](CO)NC1=O [Peptide (20)] (H-KRGCGTKFLSYKFSC-OH; disulfide 4-15 (inferred); N-terminus and C-terminus assumed)
